Results on 1 compound are retold here after patent US20210276987A1, “PHARMACEUTICAL AGENTS FOR USE IN SMOKING AND TOBACCO CESSATION” (Washington State University, priority 2018, published 2021).

Counter-ions that a name gives are not always drawn.

The term half-life denotes the time needed for the level to fall by half in the phase considered. Low readings indicate rapid decline, high ones slow decline. As usually defined, the IC50 is the concentration at which inhibition is half-maximal.

One data set concerns the target T1, CYP2B6 (Homo sapiens, UniProt P20813).
T1 sequence (P20813 1-491): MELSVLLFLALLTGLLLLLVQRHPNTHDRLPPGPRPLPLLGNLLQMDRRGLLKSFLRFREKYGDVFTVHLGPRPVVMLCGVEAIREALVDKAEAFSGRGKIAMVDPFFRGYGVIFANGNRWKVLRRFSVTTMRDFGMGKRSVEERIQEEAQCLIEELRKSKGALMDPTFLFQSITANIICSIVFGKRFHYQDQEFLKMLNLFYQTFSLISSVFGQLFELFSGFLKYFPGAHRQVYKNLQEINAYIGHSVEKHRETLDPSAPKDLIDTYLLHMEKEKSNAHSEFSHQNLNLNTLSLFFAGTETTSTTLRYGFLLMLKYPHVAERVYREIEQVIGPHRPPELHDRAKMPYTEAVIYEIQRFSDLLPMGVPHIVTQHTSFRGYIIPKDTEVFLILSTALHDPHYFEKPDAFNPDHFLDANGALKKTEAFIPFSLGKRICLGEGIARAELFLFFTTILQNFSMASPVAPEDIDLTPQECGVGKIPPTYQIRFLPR
The note with it: Table 6.

Another data set has as its target CYP2E1 (Homo sapiens, UniProt P05181). Conditions: Table 6.
Another data set concerns the target T2, CYP2C8 (Homo sapiens, UniProt P10632).
T2 sequence (P10632 1-490): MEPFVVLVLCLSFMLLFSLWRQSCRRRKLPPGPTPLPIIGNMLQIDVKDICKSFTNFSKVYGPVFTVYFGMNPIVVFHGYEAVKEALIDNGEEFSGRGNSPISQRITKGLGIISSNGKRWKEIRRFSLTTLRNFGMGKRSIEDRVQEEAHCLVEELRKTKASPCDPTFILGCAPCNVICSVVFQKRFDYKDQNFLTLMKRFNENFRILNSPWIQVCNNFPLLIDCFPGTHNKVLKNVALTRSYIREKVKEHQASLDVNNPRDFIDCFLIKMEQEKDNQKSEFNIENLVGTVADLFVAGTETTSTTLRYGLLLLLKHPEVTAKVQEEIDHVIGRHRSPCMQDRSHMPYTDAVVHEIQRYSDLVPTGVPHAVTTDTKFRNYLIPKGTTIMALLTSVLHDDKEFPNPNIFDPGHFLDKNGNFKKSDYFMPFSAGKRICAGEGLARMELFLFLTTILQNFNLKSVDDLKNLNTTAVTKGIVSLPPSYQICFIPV
Conditions: Table 6.

The subject of data set [1] is CYPs 1A2, 2B6, 2C8, 2C9, 2C19, 2D6, 2E1 and 3A4.
Another data set deals with CYP2C19 (Homo sapiens, UniProt P33261). Description: CYP2C19 inhibition assay, human liver microsomes, omeprazole probe (cocktail). The note with it: Table 6. (Microsomes from liver hold many membrane-bound enzymes, among them those of drug oxidation.)
Another data set is described as follows: in vitro. Conditions: human, microsomes, pH 7.4, T1/2 (min) in human liver microsomes. As to the method: In vitro stability studies. […] Half-lives were calculated using the one-phase exponential decay equation (GraphPad).
Data set [2] has as its target T3, CYP2A6 (Homo sapiens, UniProt P11509).
T3 sequence (P11509 1-494): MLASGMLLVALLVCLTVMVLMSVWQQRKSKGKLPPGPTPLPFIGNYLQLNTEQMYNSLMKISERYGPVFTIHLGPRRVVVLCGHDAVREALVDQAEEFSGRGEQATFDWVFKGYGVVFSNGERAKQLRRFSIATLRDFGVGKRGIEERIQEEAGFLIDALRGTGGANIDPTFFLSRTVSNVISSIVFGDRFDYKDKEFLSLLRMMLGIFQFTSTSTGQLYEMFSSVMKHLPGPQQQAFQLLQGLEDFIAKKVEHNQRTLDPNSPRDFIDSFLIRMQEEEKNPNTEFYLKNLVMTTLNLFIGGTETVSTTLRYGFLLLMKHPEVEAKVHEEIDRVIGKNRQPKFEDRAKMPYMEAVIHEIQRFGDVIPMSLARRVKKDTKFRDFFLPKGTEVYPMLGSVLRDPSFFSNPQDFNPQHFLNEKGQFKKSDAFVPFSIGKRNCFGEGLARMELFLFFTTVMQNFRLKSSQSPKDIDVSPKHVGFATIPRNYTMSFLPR
Description: biochemical.

Another data set has as its target CYP2D6 (Homo sapiens, UniProt P10635). Description: CYP2D6 inhibition assay, human liver microsomes, dextromethorphan probe (cocktail). Conditions: Table 6.
The target of data set [3] is T3, CYP2A6. The note with it: CYP2A6.
The target in the next data set is CYP2C9 (Homo sapiens, UniProt P11712). Description: CYP2C9 inhibition assay, human liver microsomes, diclofenac probe (cocktail). The note with it: Table 6.
Another data set concerns the target T4, CYP1A2 (Homo sapiens, UniProt P05177).
T4 sequence (P05177 1-516): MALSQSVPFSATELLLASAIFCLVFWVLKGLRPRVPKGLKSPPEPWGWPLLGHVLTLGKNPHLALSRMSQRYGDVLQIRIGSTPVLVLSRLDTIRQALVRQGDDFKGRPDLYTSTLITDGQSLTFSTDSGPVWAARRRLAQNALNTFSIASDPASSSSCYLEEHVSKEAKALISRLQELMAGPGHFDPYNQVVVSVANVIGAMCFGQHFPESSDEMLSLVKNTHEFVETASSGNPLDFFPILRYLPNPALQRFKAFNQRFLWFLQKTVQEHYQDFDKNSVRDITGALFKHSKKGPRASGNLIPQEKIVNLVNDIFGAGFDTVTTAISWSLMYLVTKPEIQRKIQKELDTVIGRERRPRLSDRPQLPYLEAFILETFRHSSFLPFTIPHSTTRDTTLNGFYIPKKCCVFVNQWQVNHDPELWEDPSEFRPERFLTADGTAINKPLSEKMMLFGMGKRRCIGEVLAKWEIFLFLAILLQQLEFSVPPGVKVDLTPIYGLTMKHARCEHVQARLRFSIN
Conditions: both, microsomes, pH 7.4.

Chain of CYP2C19 (P33261 whole entry): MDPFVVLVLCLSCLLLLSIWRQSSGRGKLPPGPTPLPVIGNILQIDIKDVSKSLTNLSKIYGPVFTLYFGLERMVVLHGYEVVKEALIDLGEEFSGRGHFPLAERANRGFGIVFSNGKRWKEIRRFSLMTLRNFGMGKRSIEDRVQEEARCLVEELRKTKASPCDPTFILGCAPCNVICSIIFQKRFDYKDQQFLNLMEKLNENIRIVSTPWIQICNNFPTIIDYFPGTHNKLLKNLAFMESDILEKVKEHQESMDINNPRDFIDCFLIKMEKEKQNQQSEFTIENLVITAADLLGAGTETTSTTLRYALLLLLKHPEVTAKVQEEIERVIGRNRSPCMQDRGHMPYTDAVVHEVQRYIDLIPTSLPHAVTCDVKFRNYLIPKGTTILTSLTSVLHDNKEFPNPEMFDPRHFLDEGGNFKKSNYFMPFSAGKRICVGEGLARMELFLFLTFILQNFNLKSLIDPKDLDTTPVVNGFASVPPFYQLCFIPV
Chain of CYP2C9 (P11712 whole entry): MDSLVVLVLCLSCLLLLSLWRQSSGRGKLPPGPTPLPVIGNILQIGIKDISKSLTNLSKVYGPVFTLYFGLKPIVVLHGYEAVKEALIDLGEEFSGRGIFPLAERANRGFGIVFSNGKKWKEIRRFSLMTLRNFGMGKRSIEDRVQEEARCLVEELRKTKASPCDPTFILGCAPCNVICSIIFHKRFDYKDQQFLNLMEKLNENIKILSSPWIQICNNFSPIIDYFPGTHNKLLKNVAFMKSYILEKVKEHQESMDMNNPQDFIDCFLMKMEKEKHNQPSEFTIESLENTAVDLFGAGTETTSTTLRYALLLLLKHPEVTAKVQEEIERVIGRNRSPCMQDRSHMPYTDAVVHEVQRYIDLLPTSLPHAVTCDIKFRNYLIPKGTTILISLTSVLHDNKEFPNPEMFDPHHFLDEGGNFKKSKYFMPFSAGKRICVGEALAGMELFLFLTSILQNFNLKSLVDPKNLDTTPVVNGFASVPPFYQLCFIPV
Chain of CYP2D6 (P10635 whole entry): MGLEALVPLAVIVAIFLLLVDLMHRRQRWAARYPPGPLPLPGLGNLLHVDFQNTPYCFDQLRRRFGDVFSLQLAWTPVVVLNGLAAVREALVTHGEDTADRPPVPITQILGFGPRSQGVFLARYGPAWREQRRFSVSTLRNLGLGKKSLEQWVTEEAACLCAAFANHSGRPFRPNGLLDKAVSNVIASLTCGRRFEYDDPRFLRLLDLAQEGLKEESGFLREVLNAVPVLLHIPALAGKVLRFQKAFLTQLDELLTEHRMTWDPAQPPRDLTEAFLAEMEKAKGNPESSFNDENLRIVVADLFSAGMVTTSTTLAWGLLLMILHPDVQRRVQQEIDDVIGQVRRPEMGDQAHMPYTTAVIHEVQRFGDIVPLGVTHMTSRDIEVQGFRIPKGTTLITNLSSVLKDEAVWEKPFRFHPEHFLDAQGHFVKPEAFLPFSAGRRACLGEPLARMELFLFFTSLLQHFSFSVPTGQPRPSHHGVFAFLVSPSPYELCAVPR
Chain of CYP2E1 (P05181 whole entry): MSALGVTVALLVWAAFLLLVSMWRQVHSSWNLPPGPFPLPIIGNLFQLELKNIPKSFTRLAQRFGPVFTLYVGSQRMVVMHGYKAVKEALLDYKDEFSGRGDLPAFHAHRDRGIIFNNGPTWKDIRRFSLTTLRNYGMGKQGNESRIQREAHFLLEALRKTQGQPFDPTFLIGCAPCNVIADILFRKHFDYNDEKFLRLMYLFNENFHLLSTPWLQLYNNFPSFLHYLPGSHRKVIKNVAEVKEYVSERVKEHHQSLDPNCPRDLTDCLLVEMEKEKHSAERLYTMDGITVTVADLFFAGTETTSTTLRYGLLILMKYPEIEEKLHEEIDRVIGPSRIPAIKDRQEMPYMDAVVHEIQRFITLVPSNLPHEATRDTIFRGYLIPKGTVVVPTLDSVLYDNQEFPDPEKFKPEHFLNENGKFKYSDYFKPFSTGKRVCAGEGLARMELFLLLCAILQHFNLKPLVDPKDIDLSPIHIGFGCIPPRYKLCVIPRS

Consider `NCC#Cc1cnccc1Cl` [Compound L, 3-(4-chloropyridin-3-yl)prop-2-yn-1-amine Dihydrochloride], for which the “IC50 ratio CYP2B6/CYP2A6” value at CYP2B6 is reported as 24. Besides, the “IC50 ratio CYP2E1/CYP2A6” value on CYP2E1 worked out at 10. In addition, on CYP2C8, the “IC50 ratio CYP2C8/CYP2A6” value is over 192. For the same compound, in [1], the “IC50 ratio CYPhepatic/CYP2A6 against all hepatic CYP enzymes tested” value is reported as over 25. Further, the “IC50 ratio CYP2C19/CYP2A6” value on CYP2C19 was determined as 61. Further, the half-life at 10 μM in the data set “in vitro” came out at 28 min. The IC50 was 0.13 µM against CYP2A6 [2] (IC50 against CYP2A6 (μM), Table 5, alkyne linker agents, pooled human liver microsomes, coumarin […]) and under 1 µM against CYP2A6 [2] (IC50 against CYP2A6, human liver microsomes). The “IC50 ratio CYP2D6/CYP2A6” value on CYP2D6 is reported as 29. Besides, the “IC50 fold lower than that observed for the reference agent” value against CYP2A6 [3] is listed as 1.2 fold. Moreover, the “IC50 ratio CYP2C9/CYP2A6” value on CYP2C9 was over 385. At CYP1A2, the “IC50 ratio CYP1A2/CYP2A6” value came to 33.
